Reference: the NIST ThermoML archive (doi:10.1021/je400130b)
Values joined by “and” are separate entries in the source; they are usually repeats but may differ in a detail not shown here. Equal entries are not always repeated.

Test: molar heat capacity at constant pressure
Conditions: 101.33 kPa, Crystal, Small (less than 1 g) adiabatic calorimetry

O=S(=O)([O-])[O-].[Cu+2].[Cu+2].[Cu+2].[OH-].[OH-].[OH-].[OH-] [copper(II) tetrahydroxide sulfate]
Conditions	molar heat capacity at constant pressure
4 K	4.402 J/K/mol
4.276 K	3.87 J/K/mol
4.321 K	4.927 J/K/mol
4.467 K	6.058 J/K/mol
4.5 K	6.267 J/K/mol
4.571 K	6.664 J/K/mol
4.751 K	7.35 J/K/mol
4.944 K	8.855 J/K/mol and 8.884 J/K/mol
5 K	9.138 J/K/mol
5.109 K	9.647 J/K/mol
5.218 K	10.19 J/K/mol
5.281 K	10.29 J/K/mol
5.461 K	10.03 J/K/mol
5.496 K	9.756 J/K/mol
5.659 K	8.612 J/K/mol
5.818 K	7.934 J/K/mol
5.864 K	7.741 J/K/mol
6 K	7.452 J/K/mol
6.058 K	7.363 J/K/mol
6.147 K	7.235 J/K/mol
6.298 K	7.044 J/K/mol
6.566 K	6.796 J/K/mol
6.592 K	6.689 J/K/mol
6.889 K	6.159 J/K/mol
7 K	6.491 J/K/mol
7.099 K	6.461 J/K/mol
7.18 K	6.397 J/K/mol
7.46 K	6.264 J/K/mol
7.635 K	6.223 J/K/mol
7.743 K	6.172 J/K/mol
8 K	6.095 J/K/mol
8.024 K	6.079 J/K/mol
8.159 K	6.056 J/K/mol
8.304 K	6.014 J/K/mol
8.585 K	5.956 J/K/mol
8.67 K	5.936 J/K/mol
8.866 K	5.89 J/K/mol
9 K	5.868 J/K/mol
9.144 K	5.841 J/K/mol
9.172 K	5.855 J/K/mol
9.421 K	5.784 J/K/mol
9.668 K	5.798 J/K/mol
9.696 K	5.748 J/K/mol
9.972 K	5.754 J/K/mol
10 K	5.75 J/K/mol
10.16 K	5.732 J/K/mol
10.63 K	5.745 J/K/mol
10.93 K	5.732 J/K/mol
11.68 K	5.739 J/K/mol
11.98 K	5.75 J/K/mol
12.74 K	5.81 J/K/mol
13.03 K	5.85 J/K/mol
13.78 K	5.989 J/K/mol
14.06 K	6.069 J/K/mol
14.8 K	6.285 J/K/mol
15 K	6.341 J/K/mol
15.07 K	6.393 J/K/mol
15.81 K	6.636 J/K/mol
16.07 K	6.722 J/K/mol
16.8 K	6.975 J/K/mol
17.07 K	7.117 J/K/mol
17.8 K	7.522 J/K/mol
18.06 K	7.677 J/K/mol
18.78 K	8.087 J/K/mol
19.04 K	8.238 J/K/mol
19.76 K	8.67 J/K/mol
20 K	8.85 J/K/mol
20.02 K	8.833 J/K/mol
21.22 K	9.779 J/K/mol
21.5 K	9.988 J/K/mol
23.18 K	11.26 J/K/mol
23.46 K	11.52 J/K/mol
25 K	12.91 J/K/mol
25.15 K	13.02 J/K/mol
27.12 K	14.99 J/K/mol
29.09 K	17.14 J/K/mol
30 K	18.13 J/K/mol
31.06 K	19.35 J/K/mol
33.03 K	21.62 J/K/mol
34.81 K	23.66 J/K/mol
35 K	24 J/K/mol
35.01 K	23.95 J/K/mol
36.98 K	26.35 J/K/mol
37.09 K	26.53 J/K/mol
38.96 K	28.94 J/K/mol
39.07 K	29.08 J/K/mol
40 K	30.19 J/K/mol
41.04 K	31.63 J/K/mol
43.02 K	34.11 J/K/mol
44.99 K	36.64 J/K/mol
45 K	36.59 J/K/mol
46.97 K	39.09 J/K/mol
48.95 K	41.56 J/K/mol
50 K	43.07 J/K/mol
50.93 K	44.19 J/K/mol
52.91 K	46.98 J/K/mol
54.89 K	49.62 J/K/mol
55 K	49.46 J/K/mol
56.88 K	51.68 J/K/mol
58.87 K	53.87 J/K/mol
60 K	55.63 J/K/mol
60.86 K	56.7 J/K/mol
62.84 K	59.19 J/K/mol
64.84 K	61.5 J/K/mol
65 K	61.62 J/K/mol
66.82 K	63.78 J/K/mol
68.81 K	66.04 J/K/mol
70 K	67.43 J/K/mol
70.81 K	68.24 J/K/mol
73.31 K	71.15 J/K/mol
75 K	73.06 J/K/mol
76.31 K	74.53 J/K/mol
79.15 K	77.5 J/K/mol
79.33 K	77.85 J/K/mol
80 K	78.53 J/K/mol
82.35 K	81.16 J/K/mol
82.87 K	81.56 J/K/mol
85 K	83.89 J/K/mol
85.92 K	84.81 J/K/mol
87.61 K	86.67 J/K/mol
88.97 K	88.01 J/K/mol
90 K	89.13 J/K/mol
91.38 K	90.45 J/K/mol
92.02 K	91.18 J/K/mol
94.44 K	93.68 J/K/mol
95 K	94.27 J/K/mol
95.08 K	94.4 J/K/mol
97.53 K	96.77 J/K/mol
98.16 K	97.48 J/K/mol
100 K	99.3 J/K/mol
100.62 K	99.85 J/K/mol
101.24 K	100.56 J/K/mol
103.71 K	102.89 J/K/mol
104.33 K	103.67 J/K/mol
106.81 K	105.92 J/K/mol
107.42 K	106.61 J/K/mol
109.92 K	109.04 J/K/mol
110 K	109.1 J/K/mol
110.53 K	109.61 J/K/mol
113.05 K	112.01 J/K/mol
113.64 K	112.58 J/K/mol
116.17 K	114.94 J/K/mol
116.76 K	115.5 J/K/mol
119.31 K	118.07 J/K/mol
119.89 K	118.47 J/K/mol
120 K	118.6 J/K/mol
122.46 K	120.84 J/K/mol
123.02 K	121.58 J/K/mol
125.61 K	123.78 J/K/mol
126.17 K	124.44 J/K/mol
128.76 K	126.79 J/K/mol
129.34 K	127.55 J/K/mol
130 K	128.1 J/K/mol
131.93 K	129.76 J/K/mol
132.5 K	130.3 J/K/mol
135.11 K	132.59 J/K/mol
135.67 K	133.23 J/K/mol
138.3 K	135.82 J/K/mol
138.84 K	136.39 J/K/mol
140 K	137.4 J/K/mol
141.49 K	138.48 J/K/mol
142.03 K	139.28 J/K/mol
